# Key:
# [1] = tested on: NIH3T3-EGFR T790M/L858R cells; test: Cell proliferation SRB assay; format: cell-based; settings: 72 h
# Description: (§1) The tyrosine kinase activities were determined using enzyme-linked immunosorbant assay (ELISA). The serine/threonine kinase activities were detected by Caliper Mobility Shift Assay on EZ Reader (Caliper Life Sciences, MA) according to the instruction.
# (§2) Cell viability was determined using sulforhodamine B assay. IC50 values were determined based on the results of three independent experiments. […] Whole-cell lysates were assayed for total EGFR and phosphorylation of EGFR by immunoblotting. […] Cell viability was determined using sulforhodamine B assay.
# EGFR T790M/L858R = target: T1, EGFR T790M/L858R (Homo sapiens, UniProt P00533, L858R/T790M); test: In vitro tyrosine kinase assay (ELISA); format: biochemical; settings: EGFR T790M/L858R double mutant, cell-free; means ± SD
# T1 construct: purchased Cell Signaling Technology Inc
# T1 sequence (P00533 25-1210 T790M/L858R): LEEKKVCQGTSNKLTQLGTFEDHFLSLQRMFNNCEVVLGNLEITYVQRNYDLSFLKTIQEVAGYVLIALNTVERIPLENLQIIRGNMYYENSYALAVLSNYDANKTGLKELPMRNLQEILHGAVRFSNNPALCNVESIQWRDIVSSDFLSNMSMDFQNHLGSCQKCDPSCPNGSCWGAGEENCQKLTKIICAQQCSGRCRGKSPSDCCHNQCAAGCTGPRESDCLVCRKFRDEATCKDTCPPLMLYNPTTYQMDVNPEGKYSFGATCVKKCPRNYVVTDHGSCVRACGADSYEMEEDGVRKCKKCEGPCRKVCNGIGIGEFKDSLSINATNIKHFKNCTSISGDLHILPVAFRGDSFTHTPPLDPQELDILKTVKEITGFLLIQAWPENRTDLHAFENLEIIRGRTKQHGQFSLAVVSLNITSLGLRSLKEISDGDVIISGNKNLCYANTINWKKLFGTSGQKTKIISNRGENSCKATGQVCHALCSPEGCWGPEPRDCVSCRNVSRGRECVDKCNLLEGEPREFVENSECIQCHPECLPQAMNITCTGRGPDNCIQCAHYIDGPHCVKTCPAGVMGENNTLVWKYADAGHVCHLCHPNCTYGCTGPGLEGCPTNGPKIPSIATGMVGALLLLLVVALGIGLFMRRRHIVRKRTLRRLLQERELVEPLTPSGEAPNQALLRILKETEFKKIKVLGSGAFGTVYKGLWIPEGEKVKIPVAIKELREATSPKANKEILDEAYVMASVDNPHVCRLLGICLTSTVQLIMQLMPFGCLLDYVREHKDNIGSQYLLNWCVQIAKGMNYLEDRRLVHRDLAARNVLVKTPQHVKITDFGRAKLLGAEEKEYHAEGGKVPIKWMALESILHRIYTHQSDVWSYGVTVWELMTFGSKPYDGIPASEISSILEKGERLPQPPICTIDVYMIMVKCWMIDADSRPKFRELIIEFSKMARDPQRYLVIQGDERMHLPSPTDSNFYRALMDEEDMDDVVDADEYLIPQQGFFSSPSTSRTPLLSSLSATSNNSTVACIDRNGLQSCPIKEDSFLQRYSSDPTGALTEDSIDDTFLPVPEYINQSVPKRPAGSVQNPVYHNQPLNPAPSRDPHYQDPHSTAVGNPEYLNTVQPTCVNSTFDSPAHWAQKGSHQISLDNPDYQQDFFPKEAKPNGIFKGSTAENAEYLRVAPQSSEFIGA
# Description: as §1
# (§3) The kinase domain of EGFR, ErbB-2, IGF1R, VEGFR2, FGFR1, PDGFRα, c-Src, c-Met, RON, c-Kit, EphA2 and EphB2 were expressed using the Bac-to-Bac^TM baculovirus expression system (Invitrogen, Carlsbad, CA, USA) and purified on Ni-NTA columns (QIAGEN Inc., Valencia, CA, USA). VEGFR1, PDGFRβ and c-Abl were purchased from Upstate Biotechnology Inc. (Charlottesville, Virginia, USA). […] EGF was purchased from R&D, Minneapolis, […]. Poly(Glu-Tyr)(4:1), the substrate of tyrosine kinase, was from Sigma-Aldrich Corp. St. Louis, MO, USA.
# The tyrosine kinase activities were determined in 96-well ELISA plates (Corning, NY, USA) precoated with 20 μg/mL Poly (Glu,Tyr)4:1. First, 80 μL of 5 μM ATP solution diluted in kinase reaction buffer (50 mM HEPES pH 7.4, 20 mM MgCl2, 0.1 mM MnCl2, 0.2 mM Na3VO4, 1 mM DTT) was added to each well. […] Subsequently, the kinase reaction was initiated by the addition of purified tyrosine kinase proteins diluted in 10 μL of kinase reaction buffer solution. Experiments at each concentration were performed in duplicate. […]
# [2] = Pharmacokinetics after single oral dose; settings: rat, in vivo; rats, single oral dose 90 mg/kg; unpublished data
# [3] = tested on: EGFR phosphorylation in NIH3T3-EGFR T790M/L858R cells; test: Western blot of EGFR phosphorylation; format: cell-based; settings: 6 h, immunoblotting
# Description: as §2
# Pim2 = Pim2 (Homo sapiens, UniProt Q9P1W9); settings: Pim2, cell-free
# Chain of Pim2 (Q9P1W9 whole entry): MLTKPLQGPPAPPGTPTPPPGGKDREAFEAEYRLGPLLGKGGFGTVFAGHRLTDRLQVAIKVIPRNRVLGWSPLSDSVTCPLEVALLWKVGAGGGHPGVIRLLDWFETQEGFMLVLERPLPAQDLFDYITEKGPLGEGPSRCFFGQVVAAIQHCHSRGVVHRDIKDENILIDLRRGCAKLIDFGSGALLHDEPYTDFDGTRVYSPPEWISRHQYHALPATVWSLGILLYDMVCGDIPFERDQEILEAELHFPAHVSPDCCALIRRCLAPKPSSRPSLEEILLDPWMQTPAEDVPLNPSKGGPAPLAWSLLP
# Description: as §1, §3
# GSK3b = GSK3b (Homo sapiens, UniProt P49841); settings: cell-free
# Chain of GSK3b (P49841 whole entry): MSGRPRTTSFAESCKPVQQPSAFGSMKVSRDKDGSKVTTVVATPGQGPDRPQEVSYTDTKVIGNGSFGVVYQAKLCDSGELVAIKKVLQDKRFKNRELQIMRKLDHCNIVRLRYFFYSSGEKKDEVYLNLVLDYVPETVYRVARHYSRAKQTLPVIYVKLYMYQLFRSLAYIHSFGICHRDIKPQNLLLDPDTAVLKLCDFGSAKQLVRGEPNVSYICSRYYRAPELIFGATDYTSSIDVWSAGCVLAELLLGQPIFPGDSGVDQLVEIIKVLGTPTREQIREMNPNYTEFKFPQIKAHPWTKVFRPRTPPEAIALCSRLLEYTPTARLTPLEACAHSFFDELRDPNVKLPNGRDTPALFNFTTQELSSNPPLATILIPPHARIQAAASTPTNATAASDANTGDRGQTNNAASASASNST
# Description: as §1, §3
# PKCb2 = PKCb2 (Homo sapiens, UniProt P05771); settings: PKCb2, cell-free
# Chain of PKCb2 (P05771 1-673 isoform P05771-2): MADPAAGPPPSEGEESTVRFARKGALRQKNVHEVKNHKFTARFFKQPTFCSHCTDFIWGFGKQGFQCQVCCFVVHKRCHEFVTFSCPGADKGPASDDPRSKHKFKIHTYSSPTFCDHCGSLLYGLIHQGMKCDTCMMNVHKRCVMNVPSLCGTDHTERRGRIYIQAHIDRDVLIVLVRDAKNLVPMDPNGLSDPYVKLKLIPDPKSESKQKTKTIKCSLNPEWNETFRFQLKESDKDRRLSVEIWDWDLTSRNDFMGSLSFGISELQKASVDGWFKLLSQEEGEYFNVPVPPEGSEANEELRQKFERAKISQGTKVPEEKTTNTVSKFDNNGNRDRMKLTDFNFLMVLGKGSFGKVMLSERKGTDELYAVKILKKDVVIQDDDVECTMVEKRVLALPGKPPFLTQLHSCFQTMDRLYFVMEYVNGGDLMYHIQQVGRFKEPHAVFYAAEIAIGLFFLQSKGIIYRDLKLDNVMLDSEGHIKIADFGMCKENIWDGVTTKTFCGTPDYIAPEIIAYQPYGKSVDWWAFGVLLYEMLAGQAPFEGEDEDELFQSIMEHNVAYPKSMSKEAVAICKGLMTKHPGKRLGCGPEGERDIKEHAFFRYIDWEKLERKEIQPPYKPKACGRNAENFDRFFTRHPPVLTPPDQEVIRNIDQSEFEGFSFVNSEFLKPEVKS
# Description: as §1, §3
# p70S6K = p70S6K (Homo sapiens, UniProt P23443); settings: cell-free
# Chain of p70S6K (P23443 whole entry): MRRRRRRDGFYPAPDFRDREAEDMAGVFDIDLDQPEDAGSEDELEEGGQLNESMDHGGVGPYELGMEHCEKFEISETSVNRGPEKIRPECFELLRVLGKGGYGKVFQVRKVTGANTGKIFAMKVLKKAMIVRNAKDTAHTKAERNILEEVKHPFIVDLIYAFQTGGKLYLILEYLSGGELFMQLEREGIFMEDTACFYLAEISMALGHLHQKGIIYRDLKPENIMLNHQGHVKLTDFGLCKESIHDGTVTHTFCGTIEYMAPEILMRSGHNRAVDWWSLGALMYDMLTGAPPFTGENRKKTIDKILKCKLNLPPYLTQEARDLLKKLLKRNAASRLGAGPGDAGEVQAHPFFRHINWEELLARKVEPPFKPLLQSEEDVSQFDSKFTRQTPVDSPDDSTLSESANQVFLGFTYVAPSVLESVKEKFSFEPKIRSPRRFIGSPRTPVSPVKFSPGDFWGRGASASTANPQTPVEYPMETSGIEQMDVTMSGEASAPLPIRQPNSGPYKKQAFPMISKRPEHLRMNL
# Description: as §1, §3
# AKT1 = AKT1 (Homo sapiens, UniProt P31749); settings: AKT1, cell-free
# Chain of AKT1 (P31749 whole entry): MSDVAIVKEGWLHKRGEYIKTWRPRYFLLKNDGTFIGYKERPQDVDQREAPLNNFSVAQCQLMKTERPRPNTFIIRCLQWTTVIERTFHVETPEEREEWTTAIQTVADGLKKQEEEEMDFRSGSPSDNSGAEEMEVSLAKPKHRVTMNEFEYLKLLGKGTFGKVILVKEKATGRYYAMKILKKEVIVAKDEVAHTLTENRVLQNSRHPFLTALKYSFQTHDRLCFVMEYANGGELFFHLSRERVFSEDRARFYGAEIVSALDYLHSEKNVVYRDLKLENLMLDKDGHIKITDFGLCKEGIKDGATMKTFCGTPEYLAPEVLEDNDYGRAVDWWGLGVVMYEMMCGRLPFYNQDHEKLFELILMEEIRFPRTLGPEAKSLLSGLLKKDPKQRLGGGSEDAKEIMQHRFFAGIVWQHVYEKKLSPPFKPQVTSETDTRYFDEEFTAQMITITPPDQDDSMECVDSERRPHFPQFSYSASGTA
# Description: as §1, §3
# AUR A = AUR A (Homo sapiens, UniProt O14965); settings: cell-free
# Chain of AUR A (O14965 whole entry): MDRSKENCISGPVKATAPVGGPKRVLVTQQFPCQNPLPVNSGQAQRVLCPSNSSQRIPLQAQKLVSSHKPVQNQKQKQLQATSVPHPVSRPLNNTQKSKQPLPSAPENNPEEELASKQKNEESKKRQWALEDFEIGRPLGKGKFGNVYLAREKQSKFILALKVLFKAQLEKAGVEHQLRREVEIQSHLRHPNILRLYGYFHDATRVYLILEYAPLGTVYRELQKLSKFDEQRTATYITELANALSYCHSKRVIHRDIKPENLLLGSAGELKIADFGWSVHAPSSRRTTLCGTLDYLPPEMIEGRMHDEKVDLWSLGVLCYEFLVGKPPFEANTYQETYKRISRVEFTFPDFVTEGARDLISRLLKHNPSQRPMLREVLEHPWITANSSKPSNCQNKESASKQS
# Description: as §1, §3
# CDK2 = CDK2 (Homo sapiens, UniProt P24941); settings: CDK2, cell-free
# Description: as §1, §3
# A549 cells = test: Anchorage-independent growth on soft agar; format: cell-based, human; settings: two weeks
# Description: The culture was maintained at 37°C in a 5% CO2 atmosphere for two weeks. The average colony number was calculated and colonies were photographed. […] Anchorage-independent cell transformation assay. Cell transformation was detected in SK-OV-3 and A549 cells, respectively. […] The culture were maintained in a 37°C, 5% CO2 incubator for 1-2 weeks, and the cell colonies were scored using a microscope and the Image-Pro PLUS computer software program (Media Cybernetics, Silver Spring, MD).
# [4] = tested on: phosphorylation of EGFR and downstream pathways in NCI-H1975 cells; test: Western blot of EGF-induced phosphorylation; format: cell-based, human
# Description: as §1, §2
# [5] = tested on: FVB-2/N^neu transgenic mouse model; test: Spontaneous breast cancer in FVB-2/N^neu transgenic mouse, tumor growth; format: in vivo; settings: FVB-2/N^neu mice
# From the text: Thirty eight- to forty four-week-old female FVB/N^neu mice were obtained from Shanghai Laboratory Animal Center. The animals were housed under specific pathogen-free conditions.
# NCI-H23 cells = test: Cell proliferation SRB assay; format: cell-based; settings: Homo sapiens, NCI-H23, 72 h, range given for four cell lines together, read-out: IC50 (antiproliferative)
# Description: (§4) Cell proliferation was evaluated using the SRB (Sulforhodamine B) assay as previously described. Briefly, cells were seeded into 96-well plates and grown for 24 h. […] The medium remained unchanged until the completion of the experiment. The cells were then fixed with 10% precooled trichloroacetic acid (TCA) for 1 h at 4°C and stained for 15 min at room temperature with 100 μL of 4 mg/mL SRB solution (Sigma) in 1% acetic acid. The SRB was then removed, and the cells were quickly rinsed five times with 1% acetic acid. After cells were air-dried, protein-bound dye was dissolved in 150 μL of 10 mmol/L Tris base for 5 min and measured at 515 nm using a multiwell spectrophotometer (VERSAmax, Molecular Devices). […] The IC50 value was obtained by the Logit method and was determined from the results of at least 3 independent tests.
# SK-OV-3 cells = test: Cell proliferation SRB assay; format: cell-based; settings: Homo sapiens, SK-OV-3, 72 h, range given for four cell lines together, read-out: IC50 (antiproliferative)
# Description: as §4
# MDA-MB-468 cells = test: Cell proliferation SRB assay; format: cell-based; settings: Homo sapiens, MDA-MB-468, 72 h, range given for four cell lines together, read-out: IC50 (antiproliferative)
# Description: as §4
smiles,measurement,setting,value
C=CC(=O)Nc1ccc2ncnc(Nc3ccc(OCc4cccc(F)c4)c(Cl)c3)c2c1 [AST1306],inhibition of cell growth,[1],"significant, concentration-dependent inhibition"
same,IC50,EGFR T790M/L858R,0.012 ± 0.002 µM
same,half-life,[2],< 3.6 h
same,inhibition of EGFR phosphorylation,[3],effectively inhibited EGFR phosphorylation
same,IC50,Pim2,> 10 µM
same,IC50,GSK3b,> 10 µM
same,IC50,PKCb2,> 10 µM
same,IC50,p70S6K,> 10 µM
same,IC50,AKT1,> 10 µM
same,IC50,AUR A,> 10 µM
same,IC50,CDK2,> 10 µM
same,anchorage-independent growth on soft agar,A549 cells,dramatically inhibit the growth
same,inhibition of phosphorylation of EGFR and downstream pathways,[4],blocked phosphorylation of EGFR and downstream pathways
same,tumor growth,[5]; oral twice daily for 3 wk,dramatic suppression of tumor growth
same,tumors after treatment for 11 d,"[5]; oral twice daily, 11 d",tumors almost completely disappeared
same,IC50,NCI-H23 cells,6.2 to 7.5 µM
same,IC50,SK-OV-3 cells,6.2 to 7.5 µM
same,IC50,MDA-MB-468 cells,6.2 to 7.5 µM

# From article PMC3138742 (PLoS ONE, 2011)
